Reference: patent US4727150A, “Pyridyl methylsulfinyl benzimidazole derivatives” (Takeda Chemical Industries, Ltd., priority 1984, dated 1988)

What was measured:
gastric mucosa = experiment: Ethanol-induced gastric mucosal injury in rats (action of protecting gastric mucosa); format: in vivo, Male Sprague-Dawley rats; conditions: Rattus norvegicus, po; 6 rats per group; 1, 3, 10 and 30 mg/kg into stomach; 100% ethanol 1 ml orally 30 min later; lesions measured 60 min after ethanol; read-out: Action of protecting gastric mucosa ID50
Method: As a method of determining the protecting ability of gastric mucosa, gastric mocosal injury induced by ethanol [Robert A., Gastroenterology 77, 761 (1979)] is often used. This method was applied to evaluation of the compounds of this invention. Male Sprague-Dawley rats of 7-weeks old were fasted for 24 hours. These animals were administered test compounds into stomach by using a gastric tube. After 30 minutes, 1 ml of 100% ethanol was administered orally. The animals were killed by carbon dioxide gas 60 minutes after ethanol administration. The stomach was removed together with the lower part of esophagus and the duodenum. The esophagus was clipped, 10 ml of 1% formalin solution was instilled into the stomach from the duodenum, and then the duodenum was clipped. The whole stomach was immersed in 1% formalin solution. About 15 minutes later, the stomachs were opened along the greater curvature. The length of the lesions which occurred in the gastric antral mucosa was measured under a dissecting microscope with a square-grid eye piece (×10). The sum total length of the individual lesions in each animal was measured, and the average value per group was calculated. Based on the difference between the average value of each group and that of the control group, the inhibition rate was determined. The test compound was suspended in a 5% gum arabic solution, and administered in a volume of 2 ml/kg. | ^(a) Using 6 rats per group, each of the test compounds was | administered in a dose of 1, 3, 10 and 30 mg/kg to determine ID50.

mice = experiment: Oral toxicity in mice; format: in vivo; conditions: oral administration, 500 mg/kg

Row | SMILES | ED50 (gastric mucosa) [mg/kg] | fatal effect (mice)
1 | CC(C)Oc1ccnc(C[S+]([O-])c2nc3cc(C(F)(F)F)ccc3[nH]2)c1 (centres unmarked) | 5.8 | 
2 | CCCOc1ccnc(C[S+]([O-])c2nc3ccccc3[nH]2)c1C (centres unmarked) [2-[3-methyl-4-propoxy-2-pyridyl)methylsulfinylbenzimidazole] | 12.5 | 
3 | COc1ccnc(C[S+]([O-])c2nc3cc(C(F)(F)F)ccc3[nH]2)c1C (centres unmarked) [R^1 =5-CF3, R^2 =CH3, R^3 =CH3, R^4 =H, reference compound] | 24 | 
4 | CC(C)Oc1ccnc(C[S+]([O-])c2nc3cc(F)ccc3[nH]2)c1 (centres unmarked) [R^1 =5-F, R^2 =H, R^3 =CH(CH3)2, R^4 =H] | 8.8 | 
5 | CCCOc1ccnc(C[S+]([O-])c2nc3ccccc3[nH]2)c1 (centres unmarked) [R^1 =H, R^2 =H, R^3 =(CH2)2 CH3, R^4 =H] | 7.2 | no fatal effect
6 | CCCCOc1ccnc(C[S+]([O-])c2nc3ccccc3[nH]2)c1 (centres unmarked) [R^1 =H, R^2 =H, R^3 =(CH2)3 CH3, R^4 =H] | 9.8 | 
7 | CCCCCCOc1ccnc(C[S+]([O-])c2nc3ccccc3[nH]2)c1 (centres unmarked) [R^1 =H, R^2 =H, R^3 =(CH2)5 CH3, R^4 =H] | 1.6 | 
8 | CCCCCCCCOc1ccnc(C[S+]([O-])c2nc3ccccc3[nH]2)c1 (centres unmarked) [R^1 =H, R^2 =H, R^3 =(CH2)7 CH3, R^4 =H] | 1.6 | 
9 | CC(C)Oc1ccnc(C[S+]([O-])c2nc3ccccc3[nH]2)c1 (centres unmarked) [R^1 =H, R^2 =H, R^3 =CH(CH3)2, R^4 =H] | 1.3 | 
10 | COc1ccc2[nH]c([S+]([O-])Cc3ncc(C)c(OC)c3C)nc2c1 (centres unmarked) [reference compound] | 22 | 
